Earlier results as cited in US20200277251A1, “NOVEL ANTIBACTERIAL COMPOUNDS AND METHODS OF MAKING AND USING SAME” (BROWN UNIVERSITY, priority 2017, published 2020).

Tested on: LT
Settings: purified autolysin; cited from earlier work

Question: For `CC1=N[C@@H]2[C@@H](O)[C@H](O)[C@@H](CO)O[C@@H]2S1` [NAG-thiazoline], which “binding to LT” value is on record?
Answer: Its value is “weak binder”.
